In patent US20250313535A1, “ALPHA 4 BETA 7 INTEGRIN MODULATORS AND USES THEREOF” (DICE MOLECULES SV, INC., priority 2022, published 2025):
Like-named read-outs stand apart in the source and are kept apart here.

Assays:
α4β7 integrin = α4β7 integrin (Homo sapiens (Human), UniProt P13612+P26010); assay: Integrin Adhesion Assay: Protocol 4 (MAdCAM-coated plate, RPMI-8866 cells with stable LOF mutation of the ITGB1 gene); type: cell-based
How it was run: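 RPMI-8866 cells with CRISPR/Cas9 knockout of ITGB1 (2×10^6/mL) were added to MAdCAM-coated wells with compound (1% DMSO) in HEPES/NaCl buffer with 1 mM MnCl2, 0.1 mM CaCl2 and 1% BSA, then incubated 1 h at 37 °C. After four washes, adherent cells were quantified by CellTiter-Glo luminescence. Percent inhibition versus DMSO and control compound was fitted to 4-parameter curves.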

α4β1 integrin = α4β1 integrin (Homo sapiens (Human), UniProt P05556+P13612); assay: Integrin Adhesion Assay: Protocol 5 (VCAM-coated plate, RPMI-8866 cells with stable LOF mutation of the ITGB7 gene); type: cell-based
How it was run: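 RPMI-8866 B cells with CRISPR/Cas9 ITGB7 knockout (clonal, verified by flow cytometry) adhered to VCAM-coated wells for 1 h at 37° C in HEPES/NaCl buffer with 1 mM MnCl2, 0.1 mM CaCl2, 1% BSA, 1% DMSO. Bound cells quantified by CellTiter-Glo luminescence after washing; % inhibition versus DMSO and control, 4-parameter fit.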

[1] = Protocol 4, RPMI-8866 cells with LOF mutation of ITGB1, MAdCAM, read-out: Mean IC50 α4β7 KO
[2] = Protocol 5, RPMI-8866 cells with LOF mutation of ITGB7, VCAM, read-out: Mean IC50 α4β1 KO
[3] = RPMI-8866 cells with stable LOF mutation of the ITGB1 gene, read-out: Mean IC50 α4β7 KO^a
[4] = RPMI-8866 cells with stable LOF mutation of the ITGB7 gene, read-out: Mean IC50 α4β1 KO^b

α4β7 integrin, sequence (P13612 34-1032): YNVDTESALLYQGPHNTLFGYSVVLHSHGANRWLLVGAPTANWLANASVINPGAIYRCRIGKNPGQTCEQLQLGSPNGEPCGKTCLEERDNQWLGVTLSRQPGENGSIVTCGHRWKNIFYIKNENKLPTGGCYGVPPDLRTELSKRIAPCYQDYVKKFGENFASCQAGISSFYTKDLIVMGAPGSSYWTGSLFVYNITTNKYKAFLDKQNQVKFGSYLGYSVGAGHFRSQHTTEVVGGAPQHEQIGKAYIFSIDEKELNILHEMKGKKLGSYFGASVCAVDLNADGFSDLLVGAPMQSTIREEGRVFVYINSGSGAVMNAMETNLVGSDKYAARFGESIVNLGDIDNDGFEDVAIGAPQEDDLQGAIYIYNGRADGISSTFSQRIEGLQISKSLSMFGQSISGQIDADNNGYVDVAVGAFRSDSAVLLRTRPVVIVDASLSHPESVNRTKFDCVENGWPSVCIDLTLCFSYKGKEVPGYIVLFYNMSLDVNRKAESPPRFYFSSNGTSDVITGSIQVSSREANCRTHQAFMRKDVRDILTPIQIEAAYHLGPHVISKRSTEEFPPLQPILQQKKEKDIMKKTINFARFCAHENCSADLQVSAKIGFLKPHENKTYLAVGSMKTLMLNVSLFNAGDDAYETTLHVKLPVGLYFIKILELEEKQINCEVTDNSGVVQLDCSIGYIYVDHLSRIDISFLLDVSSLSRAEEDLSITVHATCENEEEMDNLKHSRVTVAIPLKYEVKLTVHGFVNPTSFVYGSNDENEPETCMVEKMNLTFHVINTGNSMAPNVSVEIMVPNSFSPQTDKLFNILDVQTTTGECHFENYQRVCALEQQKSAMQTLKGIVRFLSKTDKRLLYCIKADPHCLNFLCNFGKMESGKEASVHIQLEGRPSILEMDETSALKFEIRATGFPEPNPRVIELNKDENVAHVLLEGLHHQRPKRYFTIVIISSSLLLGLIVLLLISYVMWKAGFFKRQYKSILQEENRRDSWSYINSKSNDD
α4β7 integrin, sequence (P26010 20-798): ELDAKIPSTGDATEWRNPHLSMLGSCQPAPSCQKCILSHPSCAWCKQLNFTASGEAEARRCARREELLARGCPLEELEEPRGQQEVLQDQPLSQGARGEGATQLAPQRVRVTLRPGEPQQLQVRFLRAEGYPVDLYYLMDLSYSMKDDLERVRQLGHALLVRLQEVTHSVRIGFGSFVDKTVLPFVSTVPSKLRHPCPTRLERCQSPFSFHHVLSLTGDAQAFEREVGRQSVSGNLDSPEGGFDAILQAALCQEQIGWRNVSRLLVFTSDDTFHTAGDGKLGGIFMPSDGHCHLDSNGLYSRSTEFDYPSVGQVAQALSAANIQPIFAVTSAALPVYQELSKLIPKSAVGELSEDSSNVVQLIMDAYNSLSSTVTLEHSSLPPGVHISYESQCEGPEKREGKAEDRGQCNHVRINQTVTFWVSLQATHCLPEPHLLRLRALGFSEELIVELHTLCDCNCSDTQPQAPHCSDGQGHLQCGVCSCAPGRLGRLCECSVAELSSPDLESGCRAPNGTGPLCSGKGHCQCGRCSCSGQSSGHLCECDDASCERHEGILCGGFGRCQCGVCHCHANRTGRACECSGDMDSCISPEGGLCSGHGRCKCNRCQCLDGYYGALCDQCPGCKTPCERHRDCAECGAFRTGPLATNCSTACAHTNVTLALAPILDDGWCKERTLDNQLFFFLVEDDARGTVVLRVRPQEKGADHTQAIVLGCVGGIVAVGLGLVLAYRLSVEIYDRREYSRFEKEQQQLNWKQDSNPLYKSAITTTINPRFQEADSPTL
α4β1 integrin, sequence (P13612 34-1032): as the sequence (P13612 34-1032) above
α4β1 integrin, sequence (P05556 21-798): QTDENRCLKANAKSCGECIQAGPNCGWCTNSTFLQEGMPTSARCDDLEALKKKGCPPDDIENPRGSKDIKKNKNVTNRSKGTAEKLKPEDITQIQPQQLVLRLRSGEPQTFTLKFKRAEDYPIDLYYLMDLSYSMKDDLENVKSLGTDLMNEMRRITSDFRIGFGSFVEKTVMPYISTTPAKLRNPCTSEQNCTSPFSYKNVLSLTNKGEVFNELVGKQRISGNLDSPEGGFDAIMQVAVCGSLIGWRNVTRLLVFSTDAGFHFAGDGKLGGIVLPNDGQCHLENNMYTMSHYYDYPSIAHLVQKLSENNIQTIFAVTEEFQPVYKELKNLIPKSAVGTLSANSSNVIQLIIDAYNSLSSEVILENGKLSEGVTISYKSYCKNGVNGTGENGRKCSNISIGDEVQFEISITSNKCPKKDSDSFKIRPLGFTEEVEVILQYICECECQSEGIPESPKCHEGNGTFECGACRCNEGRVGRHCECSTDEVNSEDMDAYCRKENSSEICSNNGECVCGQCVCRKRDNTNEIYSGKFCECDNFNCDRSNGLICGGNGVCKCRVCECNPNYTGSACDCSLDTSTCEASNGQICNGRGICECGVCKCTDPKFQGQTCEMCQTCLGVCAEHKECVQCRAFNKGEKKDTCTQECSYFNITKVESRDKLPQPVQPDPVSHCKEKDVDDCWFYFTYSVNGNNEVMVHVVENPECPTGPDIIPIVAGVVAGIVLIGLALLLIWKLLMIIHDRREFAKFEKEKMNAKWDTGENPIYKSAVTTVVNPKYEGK

| IC50 (α4β7 integrin; [1]) | IC50 (α4β1 integrin; [2]) | IC50 (α4β7 integrin; [3]) | IC50 (α4β1 integrin; [4]) | SMILES |
| --- | --- | --- | --- | --- |
| < 0.01 µM | > 1 µM |  |  | COc1cc(CN2CCC(F)(F)CC2)cnc1-c1cccc2c(C[C@H](NC(=O)C3(C(F)(F)F)CCN(CC(F)F)CC3)C(=O)O)cccc12 [Compound 928] |
| < 0.01 µM | 0.1 to 1 µM |  |  | COc1ccc(CN(C)C)c(Cl)c1-c1cccc2c(C[C@H](NC(=O)c3c(C)cccc3F)C(=O)O)cccc12 [Compound 1038] |
| 0.01 to 0.1 µM | 0.1 to 1 µM |  |  | COc1ccc2c(c1-c1cccc3c(C[C@H](NC(=O)c4c(C)cccc4F)C(=O)O)cccc13)CN(CC(F)F)CC2 [Compound 995] |
| 0.01 to 0.1 µM | > 1 µM |  |  | COc1cccc(CN2CCC(F)CC2)c1-c1cccc2c(C[C@H](NC(=O)C3(C(F)(F)F)CCN(CC(F)(F)F)CC3)C(=O)O)cccc12 [Compound 827] |
| 0.01 to 0.1 µM | 0.1 to 1 µM |  |  | COc1ccc(CN2CCOCC2)c(OC)c1-c1cccc2c(C[C@H](NC(=O)C3(C(F)(F)F)CCN(CC(F)(F)F)CC3)C(=O)O)cccc12 [Compound 785] |
|  |  | < 0.01 µM | > 1 µM | COc1ccc(CN(C)C)c(OC)c1-c1cccc2c(C[C@H](NC(=O)c3c(C)cc(C4CC(F)(F)C4)cc3F)C(=O)O)cccc12 [Compound 602] |
|  |  | 0.01 to 0.1 µM | > 1 µM | Cn1c(=O)c(-c2cccc3c(C[C@H](NC(=O)C4(C(F)(F)F)CCN(CC#N)CC4)C(=O)O)cccc23)c(C(F)(F)F)c2ccccc21 [Compound 538] |
| < 0.01 µM | 0.1 to 1 µM |  |  | COc1cccc(OCCN2CCCCC2)c1-c1cccc2c(C[C@H](NC(=O)c3c(C)cccc3F)C(=O)O)cccc12 [Compound 999] |
|  |  | < 0.01 µM | 0.1 to 1 µM | COc1ccc(CN2CCC(C)CC2)c(OC)c1-c1cccc2c(C[C@H](NC(=O)c3c(C)cccc3F)C(=O)O)cccc12 [Compound 625] |
|  |  | < 0.01 µM | 0.1 to 1 µM | COc1cc2c(c(OC)c1-c1cccc3c(C[C@H](NC(=O)c4c(C)cccc4F)C(=O)O)cccc13)CN(C)CC2 [Compound 473] |
|  |  | < 0.01 µM | 0.1 to 1 µM | COc1cccc(CN2CCCCC2)c1-c1cccc2c(C[C@H](NC(=O)c3c(C)cc(NCC(F)(F)F)cc3F)C(=O)O)cccc12 [Compound 545] |
| < 0.01 µM | > 1 µM |  |  | O=C(O)[C@H](Cc1cccc2c(-c3ncc(CN4CCC(F)CC4)c4ccccc34)cccc12)NC(=O)C1(C(F)(F)F)CCN(CC(F)F)CC1 [Compound 905] |
|  |  | < 0.01 µM | 0.1 to 1 µM | COc1cccc(CN2CCCCC2)c1-c1cccc2c(C[C@H](NC(=O)c3c(F)cccc3C(F)(F)F)C(=O)O)cccc12 [Compound 542] |
|  |  | 0.01 to 0.1 µM | > 1 µM | COc1ccc(CN2CCC(F)CC2)c(C(F)(F)F)c1-c1cccc2c(C[C@H](NC(=O)c3c(C)cccc3F)C(=O)O)cccc12 [Compound 574] |
|  |  | < 0.01 µM | 0.1 to 1 µM | COc1ccc(CN(C)C)nc1-c1cccc2c(C[C@H](NC(=O)c3c(C)cccc3F)C(=O)O)cccc12 [Compound 599] |
|  |  | < 0.01 µM | 0.1 to 1 µM | COc1ccc(CN2CCC[C@H](F)C2)c(OC)c1-c1cccc2c(C[C@H](NC(=O)c3c(C)cccc3F)C(=O)O)cccc12 [Compound 671] |
| 0.01 to 0.1 µM | > 1 µM |  |  | COc1ccc(CN2CCC(F)(F)CC2)c(OC)c1-c1cccc2c(C[C@H](NC(=O)C3(C(F)(F)F)CCN(CC(F)(F)F)CC3)C(=O)O)cccc12 [Compound 780] |
| < 0.01 µM | 0.1 to 1 µM |  |  | COc1cc(CN2CCCCC2)cc(C(F)(F)F)c1-c1cccc2c(C[C@H](NC(=O)c3c(C)cccc3F)C(=O)O)cccc12 [Compound 1023] |
| < 0.01 µM | > 1 µM |  |  | COc1ccc(CN2CCCC(F)C2)c(OC)c1-c1cccc2c(C[C@H](NC(=O)c3c(C)cccc3F)C(=O)O)cccc12 (stereo partly shown) [Compound 1012] |
|  |  | < 0.01 µM | 0.1 to 1 µM | COc1ccc(CN(C)C)c(OC)c1-c1cccc2c(C[C@H](NC(=O)c3c(F)cccc3C(F)(F)F)C(=O)O)cccc12 [Compound 479] |
| < 0.01 µM | > 1 µM |  |  | O=C(O)[C@H](Cc1cccc2c(-c3nccc4ccc(CCCN5CCCCC5)cc34)cccc12)NC(=O)C1(C(F)(F)F)CCN(CC(F)F)CC1 [Compound 748] |

Continued, compound first:

| SMILES | IC50 (α4β7 integrin; [1]) | IC50 (α4β1 integrin; [2]) | IC50 (α4β7 integrin; [3]) | IC50 (α4β1 integrin; [4]) |
| --- | --- | --- | --- | --- |
| O=C(O)[C@H](Cc1cccc2c(-c3ncc(CN4CCC(C(F)(F)F)CC4)c4ccccc34)cccc12)NC(=O)C1(C(F)(F)F)CCN(CC(F)(F)F)CC1 [Compound 874] | 0.01 to 0.1 µM | > 1 µM |  |  |
| COc1ccc(CN2CCCC3(CCN(Cc4ccccc4)CC3)C2)c(OC)c1-c1cccc2c(C[C@H](NC(=O)C3(C(F)(F)F)CCN(CC(F)(F)F)CC3)C(=O)O)cccc12 [Compound 809] | < 0.01 µM | 0.1 to 1 µM |  |  |
| Cn1c(=O)c(-c2cccc3c(C[C@H](NC(=O)C4(C)CC5CCC(C4)N5CC(F)(F)F)C(=O)O)cccc23)c(C(F)(F)F)c2ccccc21 (stereo partly shown) [Compound 481] |  |  | 0.01 to 0.1 µM | 0.1 to 1 µM |
| Cn1c(=O)c(-c2cccc3c(C[C@H](NC(=O)C4(C)CCC5(CCOCC5)CC4)C(=O)O)cccc23)c(C(F)(F)F)c2ccccc21 [Compound 522] |  |  | 0.01 to 0.1 µM | > 1 µM |
| O=C(O)[C@H](Cc1cccc2c(-c3ncc(CCN4CCC[C@H](F)C4)c4ccccc34)cccc12)NC(=O)C1(C(F)(F)F)CCN(CC(F)(F)F)CC1 [Compound 978] | < 0.01 µM | > 1 µM |  |  |
| O=C(O)[C@H](Cc1cccc2c(-c3ncc(CCN4CCCCC4)c4ccccc34)cccc12)NC(=O)C1(C(F)(F)F)CCN(CC(F)(F)F)CC1 [Compound 962] | < 0.01 µM | > 1 µM |  |  |
| O=C(O)[C@H](Cc1cccc2c(-c3ncc(CN4CCCCC4)cc3C3CC3)cccc12)NC(=O)C1(C(F)(F)F)CCN(CC(F)(F)F)CC1 [Compound 882] | < 0.01 µM | 0.1 to 1 µM |  |  |
| Cc1cc(CN2CCC(C(F)(F)F)CC2)cnc1-c1cccc2c(C[C@H](NC(=O)C3(C(F)(F)F)CCN(C4COC4)CC3)C(=O)O)cccc12 [Compound 900] | < 0.01 µM | > 1 µM |  |  |
| O=C(O)[C@H](Cc1cccc2c(-c3ncc(CN4CCC(F)(F)CC4)cc3C3CC3)cccc12)NC(=O)C1(C(F)(F)F)CCN(CC(F)(F)F)CC1 [Compound 947] | < 0.01 µM | 0.1 to 1 µM |  |  |
| CC1(C(=O)N[C@@H](Cc2cccc3c(-c4nccc5ccc(CCCN6CCCCC6)cc45)cccc23)C(=O)O)CC2CCC(C1)N2CC(F)(F)F (stereo partly shown) [Compound 548] |  |  | < 0.01 µM | > 1 µM |
| O=C(O)[C@H](Cc1cccc2c(-c3ncc(CN4CCC5(CCCCC5)CC4)c4ccccc34)cccc12)NC(=O)C1(C(F)(F)F)CCN(CC(F)(F)F)CC1 [Compound 857] | 0.01 to 0.1 µM | > 1 µM |  |  |
| O=C(O)[C@H](Cc1cccc2c(-c3ncc(CN4CC5CC(C5)C4)c4ccccc34)cccc12)NC(=O)C1(C(F)(F)F)CCN(CC(F)F)CC1 [Compound 907] | < 0.01 µM | > 1 µM |  |  |
| O=C(O)[C@H](Cc1cccc2c(-c3ncccc3CCN3CCCCC3)cccc12)NC(=O)C1(C(F)(F)F)CCN(CC(F)(F)F)CC1 [Compound 965] | 0.01 to 0.1 µM | > 1 µM |  |  |
| CN1CCCC1c1cc(-c2cccc3c(C[C@H](NC(=O)C4(C(F)(F)F)CCN(C5COC5)CC4)C(=O)O)cccc23)c2cnccc2c1 (stereo partly shown) [Compound 644] |  |  | < 0.01 µM | 0.1 to 1 µM |
| COc1ccc(CN2CCC(F)(F)CC2)c(OC)c1-c1cccc2c(C[C@H](NC(=O)C3(C(F)(F)F)CCN(C4COCC4(F)F)CC3)C(=O)O)cccc12 (single isomer, unassigned) [Compound 639] |  |  | < 0.01 µM | 0.1 to 1 µM |
| O=C(O)[C@H](Cc1cccc2c(-c3nccc4ccc(CCCN5CCCCC5)cc34)cccc12)NC(=O)C1(C(F)(F)F)CCN(C2COC2)CC1 [Compound 547] |  |  | < 0.01 µM | 0.1 to 1 µM |
| O=C(O)[C@H](Cc1cccc2c(-c3ncc(CN4CCCCC4)c4ccccc34)cccc12)NC(=O)C1(C(F)(F)F)CCN(C2CC(F)(F)C2)CC1 [Compound 681] |  |  | < 0.01 µM | 0.1 to 1 µM |
| CC1CCN(Cc2cnc(-c3cccc4c(C[C@H](NC(=O)C5(C(F)(F)F)CCN(CC(F)(F)F)CC5)C(=O)O)cccc34)c3ccccc23)CCC1(F)F (stereo partly shown) [Compound 875] | 0.01 to 0.1 µM | > 1 µM |  |  |
| Cn1c(=O)c(-c2cccc3c(C[C@H](NC(=O)C4(C(F)(F)F)CCN(C(C(F)(F)F)C(F)(F)F)CC4)C(=O)O)cccc23)c(C(F)(F)F)c2ccccc21 [Compound 490] |  |  | > 1 µM | > 1 µM |
| O=C(O)[C@H](Cc1cccc2c(-c3ncc(CN4CCCC(F)(F)CC4)c4ccccc34)cccc12)NC(=O)C1(C(F)(F)F)CCN(CC(F)(F)F)CC1 [Compound 869] | 0.01 to 0.1 µM | > 1 µM |  |  |
| Cn1c(=O)c(-c2cccc3c(C[C@H](NC(=O)C4(C(F)(F)F)CCN(C5CCS(=O)(=O)CC5)CC4)C(=O)O)cccc23)c(C(F)(F)F)c2ccccc21 [Compound 505] |  |  | 0.01 to 0.1 µM | > 1 µM |
| Cn1c(=O)c(-c2cccc3c(C[C@H](NC(=O)C4(C(F)(F)F)CCN(CCC(F)(F)F)CC4)C(=O)O)cccc23)c(C(F)(F)F)c2ccccc21 [Compound 536] |  |  | 0.01 to 0.1 µM | > 1 µM |
| Cn1c(=O)c(-c2cccc3c(C[C@H](NC(=O)C4(C(F)(F)F)CCN(CC5(F)CCC5)CC4)C(=O)O)cccc23)c(C(F)(F)F)c2ccccc21 [Compound 533] |  |  | 0.01 to 0.1 µM | > 1 µM |
